The values below are quoted from earlier work in US11802256B2, “Method for extracting palmitoleic acid from macadamia integrifolia and use thereof” (SOUTHWEST FORESTRY UNIVERSITY, priority 2021, dated 2023).

Structures are written as SMILES.

For series [1], the system named is mouse melanoma cells.
Series [2] has as its target T1, tyrosinase (Mus musculus, UniProt P11344).
T1 construct: host or cells: mouse melanocytes / mouse melanoma cells (endogenous)
T1 sequence (P11344 19-533): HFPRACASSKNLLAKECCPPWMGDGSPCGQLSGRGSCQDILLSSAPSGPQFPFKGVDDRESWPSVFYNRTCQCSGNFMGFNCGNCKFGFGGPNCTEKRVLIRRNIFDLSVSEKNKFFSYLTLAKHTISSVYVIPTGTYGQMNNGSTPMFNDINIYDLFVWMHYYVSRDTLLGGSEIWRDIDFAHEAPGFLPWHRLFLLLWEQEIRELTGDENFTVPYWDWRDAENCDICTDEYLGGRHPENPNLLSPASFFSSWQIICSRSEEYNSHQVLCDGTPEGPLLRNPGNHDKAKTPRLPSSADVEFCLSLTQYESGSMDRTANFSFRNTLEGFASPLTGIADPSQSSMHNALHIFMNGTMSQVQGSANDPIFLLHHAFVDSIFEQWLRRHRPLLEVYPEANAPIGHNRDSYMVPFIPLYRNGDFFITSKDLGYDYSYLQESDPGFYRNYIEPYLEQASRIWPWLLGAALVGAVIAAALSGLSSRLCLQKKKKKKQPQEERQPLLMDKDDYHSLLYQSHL
The conditions noted are these: mouse melanocytes, at a protein level.

In the case of `CCCCCC/C=C\CCCCCCCC(=O)O` [palmitoleic acid], the “inhibitory effect on melanin production” value in series [1] is recorded as “strong inhibitory effect”. Also, the tyrosinase activity entry in series [2] is reported as “inhibits tyrosinase activity”.
